The record followed here is patent US20230241098A1, “ANTIVIRAL PHARMACEUTICAL COMPOSITION” (priority 2020, published 2023).

One series deals with HRV-C15. Kind of series: Viral genome copy number (quantitative RT-PCR of apical washes) in HRV-C15-infected MucilAir nasal epithelia (Examples 1 and 3). As to conditions: for effect on RV-C15 replication (in words): rupintrivir basal, comparison of fucoidan sources. The class given is cell-based, human rhinovirus.
In series [1] the test system is respiratory syncytial virus A. The class given is cell-based. Conditions: RSV A.
Series [2] relates to MucilAir nasal human 3D Epithelial model. Kind of series: Cilia beating frequency (CBF). It is filed as cell-based. Conditions: Example 4; day 4; once or twice daily; ribavirin basal.
For series [3] the test system is unchanged. The series can be described thus: Mucociliary clearance (MCC), bead velocity. Conditions: Example 4; day 4; once or twice daily; ribavirin basal. The class given is cell-based.
For a further series, the system named is Interleukin 8 (IL-8). The series can be described thus: Interleukin 8 release into basal medium (ELISA). The class given is cell-based, human.
The subject of another series is RANTES. The series can be described thus: RANTES release into basal medium (ELISA). It is filed as cell-based, human. In general terms: In an ELISA, binding on a coated surface is turned into a signal by an enzyme label.
In series [4] the test system is MucilAir nasal human 3D Epithelial model.
In the next series the test system is HRV-A16. Kind of series: Viral genome copy number (quantitative RT-PCR of apical washes) in HRV-A16-infected MucilAir nasal epithelia (Example 5). It is filed as cell-based, human rhinovirus. As to conditions: twice daily apical, rupintrivir 5 μM basal.
In another series the test system is HRV-B14. Kind of series: Viral genome copy number (quantitative RT-PCR of apical washes) in HRV-B14-infected MucilAir nasal epithelia (Example 6). As to conditions: for Mean Log 10 ((Copies/ml) + 1), viral genome copy number: 5 μM, positive antiviral control. It is filed as cell-based, human rhinovirus.
In series [5] the test system is MucilAir nasal human 3D Epithelial model. Conditions: Examples 2 and 4 (RSV A experiments); all measured timepoints.
Setting [6] is: Example 4, once or twice daily (25 μg Test UP: see once daily exception), ribavirin basal.

Where “and” joins values, the source holds several entries; their conditions need not be identical. Identical values can stand only once. Like-named read-outs stand apart in the source and are kept apart here.

As for `NC(=O)c1ncn([C@@H]2O[C@H](CO)[C@@H](O)[C@H]2O)n1` [Ribavirin, ribavirin], the “Mean viral genome copy number” value in the series with HRV-C15 (Example 3, HRV-C15, 3.5 hours post infection, 1x (once daily apical), positive control basal, 0.00 = below detection limit) is 0.00 Log 10 ((Copies/ml) + 1); in the series with HRV-C15 (Example 3, HRV-C15, 3.5 hours post infection, 2x (twice daily apical), positive control basal, 0.00 = below detection limit), 0.00 Log 10 ((Copies/ml) + 1); in the series with HRV-C15 (Example 3, HRV-C15, 24 hours post infection, 1x (once daily apical), positive control basal), 5.14 Log 10 ((Copies/ml) + 1); in the series on HRV-C15 (Example 3, HRV-C15, 24 hours post infection, 2x (twice daily apical), positive control basal), 5.14 Log 10 ((Copies/ml) + 1); in the series with HRV-C15 (Example 3, HRV-C15, 48 hours post infection, 1x (once daily apical), positive control basal), 7.63 Log 10 ((Copies/ml) + 1); in the series on HRV-C15 (Example 3, HRV-C15, 48 hours post infection, 2x (twice daily apical), positive control basal) it was 7.63 Log 10 ((Copies/ml) + 1). Also, the “Mean viral genome copy number” value is 6.89 Log 10 ((Copies/ml) + 1) in the series with HRV-C15 (Example 3, HRV-C15, 72 hours post infection, 1x (once daily apical), positive control basal); 6.89 Log 10 ((Copies/ml) + 1) in the series with HRV-C15 (Example 3, HRV-C15, 72 hours post infection, 2x (twice daily apical), positive control basal); 6.24 Log 10 ((Copies/ml) + 1) with HRV-C15 (Example 3, HRV-C15, 96 hours post infection, 1x (once daily apical), positive control basal); 6.24 Log 10 ((Copies/ml) + 1) in the series with HRV-C15 (Example 3, HRV-C15, 96 hours post infection, 2x (twice daily apical), positive control basal); 5.63 Log 10 ((Copies/ml) + 1) and 3.52 Log 10 ((Copies/ml) + 1) in series [1] (Example 2, 3.5 hours post infection, AP apical / BL basal as in label, ribavirin 100 uM basal, 0.00 = below detection limit); 6.48 Log 10 ((Copies/ml) + 1) and 10.22 Log 10 ((Copies/ml) + 1) in [1] (Example 2, 24 hours post infection, AP apical / BL basal as in label, ribavirin 100 uM basal, 0.00 = below detection limit). Besides, the “Mean viral genome copy number” value was 7.07 Log 10 ((Copies/ml) + 1) and 11.46 Log 10 ((Copies/ml) + 1) in series [1] (Example 2, 48 hours post infection, AP apical / BL basal as in label, ribavirin 100 uM basal); 7.78 Log 10 ((Copies/ml) + 1) and 10.33 Log 10 ((Copies/ml) + 1) in series [1] (Example 2, 72 hours post infection, AP apical / BL basal as in label, ribavirin 100 uM basal); 8.32 Log 10 ((Copies/ml) + 1) and 9.09 Log 10 ((Copies/ml) + 1) in series [1] (Example 2, 96 hours post infection, AP apical / BL basal as in label, ribavirin 100 uM basal); 6.76 Log 10 ((Copies/ml) + 1) in [1] (Example 4, 3.5 hours post infection, first block of Table 12, 1x (once daily apical), ribavirin 100 μM basal); 6.76 Log 10 ((Copies/ml) + 1) in [1] (Example 4, 3.5 hours post infection, second block of Table 12, head prints 1x, ribavirin 100 μM basal); 7.06 Log 10 ((Copies/ml) + 1) in series [1] (Example 4, 24 hours post infection, first block of Table 12, 1x (once daily apical), ribavirin 100 μM basal). Moreover, the “Mean viral genome copy number” value in [1] (Example 4, 24 hours post infection, second block of Table 12, head prints 1x, ribavirin 100 μM basal) was 7.06 Log 10 ((Copies/ml) + 1); in series [1] (Example 4, 48 hours post infection, first block of Table 12, 1x (once daily apical), ribavirin 100 μM basal), 6.79 Log 10 ((Copies/ml) + 1); in [1] (Example 4, 48 hours post infection, second block of Table 12, head prints 1x, ribavirin 100 μM basal), 6.79 Log 10 ((Copies/ml) + 1); in series [1] (Example 4, 72 hours post infection, first block of Table 12, 1x (once daily apical), ribavirin 100 μM basal), 7.40 Log 10 ((Copies/ml) + 1); in [1] (Example 4, 72 hours post infection, second block of Table 12, head prints 1x, ribavirin 100 μM basal), 7.40 Log 10 ((Copies/ml) + 1); in series [1] (Example 4, 96 hours post infection, first block of Table 12, 1x (once daily apical), ribavirin 100 μM basal), 8.89 Log 10 ((Copies/ml) + 1). Further, in [1] (Example 4, 96 hours post infection, second block of Table 12, head prints 1x, ribavirin 100 μM basal), the “Mean viral genome copy number” value was 8.89 Log 10 ((Copies/ml) + 1). Moreover, the “decrease of the viral load” value in series [1] (Example 2, ribavirin 100 μM basal) is listed as 3 logs. In addition, the “effect on RSV A induced cilia impairment (in words)” value in series [2] was “prevented”. Besides, in [3], the “effect on RSV A induced MCC reduction (in words)” value is listed as “attenuated this RSV A induced MCC reduction”. The “effect on RSV A induced IL-8 release (in words)” value with Interleukin 8 (IL-8) (setting [6]) is listed as “prevented the RSV A induced IL-8 release”. Also, the “effect on RSV A-induced RANTES release (in words)” value in the series with RANTES (setting [6]) is reported as “effectively prevented the virus-induced increase of RANTES release”. Further, the “TEER of inoculated inserts (in words)” value in series [4] (Example 4, RSV A-inoculated inserts, once or twice daily, ribavirin basal) is “TEER values similar to that of the mock inserts”.

In the case of `CCOC(=O)/C=C/[C@H](C[C@@H]1CCNC1=O)NC(=O)[C@@H](CC(=O)[C@@H](NC(=O)c1cc(C)on1)C(C)C)Cc1ccc(F)cc1` [Rupintrivir], the “Mean viral genome copy number” value was 0.00 Log 10 ((Copies/ml) + 1) in the series on HRV-C15 (Example 1, HRV-C15, 3.5 hours post infection, AP apical / BL basal as in label, rupintrivir 5 μM basal, 0.00 = below detection limit); 5.57 Log 10 ((Copies/ml) + 1) with HRV-C15 (Example 1, HRV-C15, 24 hours post infection, AP apical / BL basal as in label, rupintrivir 5 μM basal, 0.00 = below detection limit); 6.46 Log 10 ((Copies/ml) + 1) with HRV-C15 (Example 1, HRV-C15, 48 hours post infection, AP apical / BL basal as in label, rupintrivir 5 μM basal); 6.69 Log 10 ((Copies/ml) + 1) in the series on HRV-C15 (Example 1, HRV-C15, 72 hours post infection, AP apical / BL basal as in label, rupintrivir 5 μM basal); 7.17 Log 10 ((Copies/ml) + 1) with HRV-C15 (Example 1, HRV-C15, 96 hours post infection, AP apical / BL basal as in label, rupintrivir 5 μM basal); 0.00 Log 10 ((Copies/ml) + 1) in the series on HRV-A16 (3.5 hours post infection, 0.00 = below detection limit). The “Mean viral genome copy number” value is listed as 0.00 Log 10 ((Copies/ml) + 1) with HRV-A16 (24 hours post infection, 0.00 = below detection limit); 4.70 Log 10 ((Copies/ml) + 1) in the series on HRV-A16 (48 hours post infection, 0.00 = below detection limit); 5.30 Log 10 ((Copies/ml) + 1) in the series with HRV-A16 (72 hours post infection, 0.00 = below detection limit); 3.77 Log 10 ((Copies/ml) + 1) in the series with HRV-A16 (96 hours post infection). Moreover, the “decrease of the viral load” value with HRV-C15 (Example 1, HRV-C15, rupintrivir 5 μM basal, on average) is listed as “two”. Moreover, the “effect on RV-C15 replication (in words)” value with HRV-C15 (Example 3) is reported as “most effective inhibitor of RV-C15 replication”; in the series with HRV-C15 (Example 3, listed as rupintrivir), “significantly reduced viral genome copy number”. Further, the “Mean Log 10 ((Copies/ml) + 1), viral genome copy number” value was 0.00 Log 10 ((Copies/ml) + 1) in the series with HRV-B14 (time 3.5 h); 3.65 Log 10 ((Copies/ml) + 1) in the series on HRV-B14 (time 24 h); 4.23 Log 10 ((Copies/ml) + 1) in the series with HRV-B14 (time 48 h); 4.26 Log 10 ((Copies/ml) + 1) with HRV-B14 (time 72 h); 0.00 Log 10 ((Copies/ml) + 1) in the series with HRV-B14 (time 96 h). Besides, in the series on HRV-B14 (RV-B14, Day 4), the “detection of virus (in words)” value is “no more virus was detected”. In addition, the “effect on RV-C15 induced IL-8 release (in words)” value in the series on Interleukin 8 (IL-8) (Example 1, HRV-C15-inoculated inserts, day 4 post infection) is reported as “prevented”. Moreover, in the series with Interleukin 8 (IL-8) (Example 2, RSV A-inoculated inserts, day 2 and day 4 as stated), the “effect on RSV A induced IL-8 release (in words)” value was “prevented”. For the same compound, the “effect on virus-induced increase of RANTES release (in words)” value with RANTES (Example 3, RV-C15, rupintrivir basal) is on record as “effectively prevented the virus-induced increase of RANTES release”. The “effect on HRV-C15 induced transient TEER decrease (in words)” value in [4] (Example 1, HRV-C15-inoculated inserts, apical or basal as in label) was “prevented this transient TEER decrease”. Further, the “TEER of inoculated inserts” value in series [4] (Example 3, HRV-C15-inoculated inserts) was “above 100 Ω·cm^2”. Besides, the “cytotoxicity (LDH, Triton X-100 = 100%)” value in series [5] is “below 5%”.

Consider “Polyethylene glycol tert-octyl phenyl ether [Triton X-100]”, for which the TEER entry in series [4] (positive control for cytotoxicity, 10% (v/v) in normal saline, 50 μl apically, Examples 1 to 4) is listed as “below 100 Ω·cm^2”.
